Tests used:
[1] = test system: soybean rust fungus (Phakopsora pachyrhizi) having an amino acid substitution of F129L on mitochondrial cytochrome b protein; assay: Comparative Test Example 1: soybean leaf disk test versus commercial QoI fungicides; assay type: in vivo; settings: method of Test Example 1
Description: A soybean leaf (cv; Kurosengoku) was punched out to 1 cm diameter to prepare a leaf disk. Each 1 mL of 1.2% agar medium was dispensed in 24 well microplate. A piece of the leaf disk was placed on each well. To a mixture of 0.5 μL of Sorpol (registered trademark) 1200KX, 4.5 μL of DMSO, and 5 μL of xylene was added 20 μL of a solution containing 10,000 ppm of the test compound in DMSO. The resulting mixture was diluted with ion exchange water to prepare a spray solution containing a predetermined concentration of the test compound. The spray solution was sprayed in 10 μL per one leaf disk. After 1 day, an aqueous suspension of spores of soybean rust fungus (Phakopsora pachyrhizi) having an amino acid substitution of F129L on mitochondrial cytochrome b protein (1.0×10^5/mL) was inoculated onto the leaf disks. After the inoculation, the microplate was placed in a growth chamber (light on for 6 hours, light off for 18 hours, 23° C. temperature, 60% humidity). After 1 day, the leaf disks were air-dried to disappear water droplets on the surface of the leaf disk, and the microplate was placed again in the growth chamber for 10 to 14 days. Thereafter, a lesion area of soybean rust disease was assessed. […] Here the untreated means that the spray solution containing the test compound was not sprayed onto the leaf disk.
The test was conducted by using as a test compound the compound 1, 4 or 9 of the present invention, the present compound 7, 8, 15, 18, 23, 31 or 37, pyribencarb, azoxystrobin, dimoxystrobin, metominostrobin, Fluoxastrobin, or Kresoxim-methyl at 50 ppm according to a method described in the Test Example 1. The results are indicated in [Table A] and [Table B].

[2] = test system: soybean rust fungus strain with single amino acid substitution of F129L in the cytochrome b gene; settings: F129L QoI-resistant soybean rust fungi; background art; cited from earlier work

Compound | Lesion area (%) at 50 ppm [1] [%] | efficacy against the resistant fungi [2]
CO/C=C(/C(=O)OC)c1ccccc1Oc1cc(Oc2ccccc2C#N)ncn1 [Azoxystrobin] | 100 | reduced to the level of practical problems
CO/C=C(\Oc1cc(C2CC2)ccc1C)C(=O)OC [Compound 1 of the present invention] | 0 | 
CO/C=C(\Oc1cc(C2OCCCO2)ccc1C)C(=O)OC [Compound 4 of the present invention] | 10 | 
CO/C=C(\Oc1cc(/N=C/N(C)c2ccccc2)ccc1C)C(=O)OC [Compound 9 of the present invention] | 10 | 
CNC(=O)/C(=N/OC)c1ccccc1COc1cc(C)ccc1C [Dimoxystrobin] | 100 | reduced to the level of practical problems
CO/N=C(/C1=NOCCO1)c1ccccc1Oc1ncnc(Oc2ccccc2Cl)c1F [Fluoxastrobin] | 100 | reduced to the level of practical problems
CO/N=C(/C(=O)OC)c1ccccc1COc1ccccc1C [Kresoxim-methyl] | 100 | reduced to the level of practical problems
CO/C=C(/C(=O)OC)N(C)c1cccc(Oc2ccccc2C)c1 [Present compound 7] | 10 | 
CO/C=C(\Oc1cccc(C(=O)c2ccccc2)c1)C(=O)OC [Present compound 8] | 10 | 
CO/C=C(\Oc1cc(Oc2ccccc2)ccc1C)C(=O)OC [Present compound 15] | 0 | 
CO/C=C(\Oc1cc(Cc2ccccc2)ccc1C)C(=O)OC [Present compound 18] | 0 | 
COC(=O)NCc1cc(/C(C)=N/OCc2cccc(C)n2)ccc1Cl [Pyribencarb] | 100 | reduced to the level of practical problems
Metominostrobin | 100 | reduced to the level of practical problems

— US12439917B2, “Method for controlling phakopsora pachyrhizi having resistance against QoI fungicide” (SUMITOMO CHEMICAL COMPANY, LIMITED, priority 2020, dated 2025)
